Assay results as given in patent publication US20100021434A1, “Isolated Oligodendrocyte-Like Cells and Populations Comprising Same for the Treatment of CNS Diseases” (Ramot At Tel Aviv University Ltd., priority 2005, published 2010).

B1: Neurotrophin-3: neurotrophin 3, human polypeptide or mammalian homologue, from PeproTech (protein, UniProt P20783 139-257, looked up)
Neurotrophin-3: YAEHKSHRGEYSVCDSESLWVTDKSSAIDIRGHQVTVLGEIKTGNSPVKQYFYETRCKEARPVKNGCRGIDDKHWNSQCKTSQTYVRALTSENNKLVGWRWIRIDTSCVCALSRKIGRT
modifications: Neurotrophin-3
notes: neurotrophin 3, human polypeptide or mammalian homologue, from PeproTech

Assays:
Assay type in all cases: cell-based
mouse MSCs [1] = assay: Oligodendrocyte-like differentiation of mouse MSCs, immunostaining (A2B5, O4, MBP); settings: for Fraction of A2B5+ cells: mouse MSCs, cytokines added to growth medium; for expression of the oligodendrocyte progenitor marker A2B5 (FIGS. 4A-C): MSCs of C57-EGFP mice, NT-3 50 ng/ml, IL-1β 20 ng/ml
Experimental: (§1) Oligodendrocyte-like Differentiation of mouse MSCs: 3.2*10^3 mMSCs per well from transgenic EGFP+ C57/b1 mice (that have constitutive expression of EGFP in all their cells), were cultured in growth medium (15% FCS, 5% HS, 2 mM L-glutamine, 0.001% β-mercaptoethanol, 10 ng/ml epidermal growth factor, 100 U/ml Penicillin, 100 μg/ml Streptomycin and 12.5 U/ml Nystatin in α-DMEM), and then transferred to mediums containing different cytokines, hormones and growth factors (See table 2 hereinbelow) that play roles in oligodendrocyte lineage differentiation process, to examine the effects of those substances on the cells. The cells were incubated in the differentiation mediums for 48 hours or 6 days, and then were fixed in 4% PFA for 5 minutes in RT and 20 minutes in 4° C. and photographed for morphological changes.
The fixed cells were then blocked in 5% goat serum (GS) stained with mouse anti-A2B5 antibodies (1:200; Chemicon) overnight, 4° C., washed twice in 5% GS, and appropriate goat anti mouse second Cy3 antibody (1:500; Jackson labs) for one hour, RT, in the dark. The cells were then examined for fluorescence and photographed by fluorescence Olympus IX70-S8F2 microscope with fluorescent light source and a U-MNU filter cube (Olympus). In all immuno-staining experiments, a sample was also stained with IInd antibodies only, as control, to detect any non-specific staining.

mouse MSCs [2] = assay: FACS analysis of differentiated mouse cells (A2B5, O4); settings: EGFP mMSCs, IL-1β 20 ng/ml in growth medium, 4 days
Experimental: FIGS. 5A-D are graphs and tables illustrating an analysis of mouse MSCs following differentiation protocol in vitro. MSCs from the bone marrow of transgenic EGFP-expressing transgenic mice (A) were cultured in differentiation medium composed of standard growth medium supplemented by IL-1β (20 ng/ml), or in standard growth medium only (control; B) for 4 days. The cells were then stained by antibodies against oligodendrocyte progenitor marker A2B5, and analyzed by flow cytometry (A2B5 staining seen as black lines). Nonspecific staining by second antibody only was used as control (nonspecific staining seen as red lines), and quantitative measurements were made from the cross points of the two lines. Quantitative measurements (D) were made either on the total population (first row), or on the population with very small-sized events omitted (see gated area in A; second row in D).
FACS analysis of differentiated mouse cells: MSCs were harvested from the tissue culture flasks following […] in differentiation medium (See Table 3, in the Results, #4), alongside undifferentiated MSCs, and centrifuged at 1000×rpm for 10 minutes at room temperature. […] After two washes in flow buffer, the cells were resuspended in 0.5 ml PBS and were studied by a fluorescence activated cell sorter (FACS) Calibur™ using an argon ion laser, adjusted to an excitation wavelength of 488 nm (Becton Dickinson). […]

mouse MSCs [3] = assay: Oligodendrocyte-like differentiation of mouse MSCs, morphology; settings: MSCs of C57-EGFP transgenic mice, growth medium plus cytokines, 6 days
Experimental: as §1

Molecule | Fraction of A2B5+ cells (mouse MSCs [1]; 48 hours) | percentage A2B5+ cells (FACS analysis) (mouse MSCs [2]) | cell morphology (FIGS. 3A-F) (mouse MSCs [3]) | expression of the oligodendrocyte progenitor marker A2B5 (FIGS. 4A-C) (mouse MSCs [1]; 6 days) | Fraction of A2B5+ cells (mouse MSCs [1]; 6 days)
CC1=C(/C=C/C(C)=C/C=C/C(C)=C/C(=O)O)C(C)(C)CCC1 [Retinoic acid, reference compound] | 0% |  |  |  | 
Interleukin-1β: interleukin 1 beta, cytokine from PeproTech added to growth medium | 1% | changes. Low | did not alter drastically | acquiring expression | 3.8%
B1 | 1.9% |  | did not alter drastically | acquiring expression | 2.7%
